In patent publication US9359592B2, “Method for differentiation into retinal cells from stem cells” (SNU R&DB Foundation, priority 2009, dated 2016):

Key:
[1] = system: retinal progenitor cells differentiated from hESCs (differentiation into photoreceptor cells); experiment: Immunochemical staining: positive rates of retinal cell markers after differentiation with substitutes for Wnt3a and Shh; assay type: cell-based, human; conditions: mean, sample size = 3
Description: The eye field precursors (floating aggregates) were cultured in 8-well poly-D-lysine/laminin-coated slides (BD Biosciences, Bedford, Mass.) under the same conditions that were used for differentiation into the retinal progenitor cells, the neural retinal progenitor cells, the photoreceptor cell precursors and the photoreceptor cells.
After being blocked for 90 min, the slides in each differentiation step were incubated overnight at 4° C. with the following antibodies specific for cells of each differentiation step: rabbit-Blue-opsin (1:500, Chemicon), sheep-Chx10 (1:100, Chemicon), rabbit-Crx (1:200, Santa Cruz Biotechnology, Santa Cruz, Calif., USA), rabbit-GFAP (1:200, Invitrogen), mouse-human specific mitochondria (1:50, Chemicon), rabbit-human specific mitochondria (1:200, Chemicon), mouse-Islet1 (1:10, Developmental Studies Hydroma Bank, DSHB; Iowa City, Iowa, USA), mouse-Ki67 (1:100, Vector Laboratories, Peterborough, England), mouse-Mitf (1:1,000, abcam, Cambridge, Mass., USA), mouse-nestin (1:250, BD Sciences), rabbit-neurofilament-200 (1:1,000, Sigma-Aldrich), rabbit-Otx2 (1:100, abcam), rabbit-Pax2 (1:250, abcam), mouse-Pax6 (1:2, DSHB), mouse-peripherin2 (1:500, GenScript, Piscataway, N.J., USA), rabbit-Rax (1:250, abcam), rabbit-recoverin (1:1,000, Chemicon), retinal pigment epithelium 65 (RPE65, 1:100, Chemicon), rabbit-rhodopsin (1:500, Sigma-Aldrich), mouse-rhodopsin (1:500, Ret-P1, Lab Vision, Fremont, Calif., USA), mouse-rhodopsin (1:2,000, Ret-P1, Sigma-Aldrich), mouse-rom1 (1:50, ABR-Affinity Bioreagents, Golden, Colo., USA), rabbit-PDE6 beta (1:100, abcam), rabbit-phosducin (1:500, Santa Cruz Biotechnology), mouse-PKC-alpha (1:500, Sigma-Aldrich), mouse-Prox1 (1:2,000, Chemicon), mouse-Sox2 (1:250, R&D Systems), rabbit-synaptophysin (1:2,000, Santa Cruz Biotechnology), and rabbit-ZO-1 (1:100, Zymed-Invitrogen).
The cells cultured on the slides in each step were washed three times for 5 min with PBS and incubated at room temperature for 2 hrs with species-specific secondary antibody conjugated with Cy3 (1:800, Jackson Immunoresearch Laboratory) or Alexa488 (1:500, Invitrogen). A standard material suitable for the primary and the secondary antibody was used to examine non-specific staining or interaction between the antibodies. Afterwards, the cells were washed three times for 5 min with PBS, counterstained with DAPI (4′,6-diamidino-2 phenylindole) and mounted in Vectashield (Vector Laboratories), followed by visualization under an epifluorescence microscope (Nikon Eclipse, E800, Tokyo, Japan) and a confocal microscope (Leica, Leica Microsystems Inc, Bannockburn, Ill., USA or Zeiss LSM510, Carl Zeiss, Inc, Thornwood, N.Y., USA).
500 cells were counted from 20 microscopic fields randomly selected at 200 magnification and evaluated for positive responses to each antibody. Positive responses to antibodies were determined after at least three evaluations. […] All data were represented as mean standard error of the mean (S.E.M) with a statistical significance of p<0.05.

[2] = system: hESC-derived retinal progenitor cells / neural retinal progenitor cells; experiment: Immunochemical staining: marker positive rates during stepwise differentiation (Examples 4 to 6); assay type: cell-based, human; conditions: 50 ng/ml Wnt3a for 5 days (day 18); 12.8% before addition
Description: The retinal progenitor cells generated in Example 3 were cultured in a medium for inducing differentiation into neural retinal progenitor cells [DMEM/F12 (Invitrogen), 1 mM L-glutamine (Invitrogen), 0.1 mM nonessential amino acids (Invitrogen), 0.1 mM mercaptoethanol (Sigma-Aldrich), 1% B27 supplement (Invitrogen), 1% N2 supplement (Invitrogen), 10 ng/ml noggin, 10 ng/ml IGF-1, 5 ng/ml FGF2, 50 ng/ml recombinant Wnt3a (R&D Systems)] supplied thereto for 5 days, thus giving neural retinal progenitor cells (FIG. 1).
The neural retinal progenitor cells generated in Example 4 were induced to differentiate into photoreceptor cell precursors by supplying a medium [DMEM/F12 (Invitrogen), 1 mM L-glutamine (Invitrogen), 0.1 mM nonessential amino acids (Invitrogen), 0.1 mM mercaptoethanol (Sigma-Aldrich), 1% B27 supplement (Invitrogen), 1% N2 supplement (Invitrogen), 10 ng/ml IGF-1, 50 ng/ml Wnt3a, and 250 ng/ml recombinant Shh (Sonic Hedgehog amino terminal peptide, Shh, R&D Systems)] for 3 days. Noggin and FGF2, both used in the previous step, were excluded from the medium (FIG. 1).
The differentiation of the cells obtained in Examples 3 to 6 was examined using an immunochemical staining method as follows. […]

`O=C1Nc2cc(Br)ccc2/C1=C1/Nc2ccccc2/C1=N\O` [BIO, 6-bromoindirubin-3′ oxime] was tested, and the “Positive rate of Crx” value ([1]; Wnt3a substitute at 2 uM) was 65.8%, the “Positive rate of Ki67” value ([1]; Wnt3a substitute at 2 uM) was 17.2% and the “Positive rate of Pax6” value ([1]; Wnt3a substitute at 2 uM) was 92.8%. For the same molecule, the “Positive rate of Rom” value ([1]; Wnt3a substitute at 2 uM) was 60.3%, the “Positive rate of b-opsin” value ([1]; Wnt3a substitute at 2 uM) was 77.5% and the “Positive rate of peripherin2” value ([1]; Wnt3a substitute at 2 uM) was 33.9%. For the same molecule, the “Positive rate of recoverin” value ([1]; Wnt3a substitute at 2 uM) was 77.1% and the “Positive rate of rhodopsin” value ([1]; Wnt3a substitute at 2 uM) was 71.5%.

`[Cl-].[Li+]` [LiCl] was tested, and the “Positive rate of recoverin” value ([1]; Wnt3a substitute at 2.5 mM) was 64.1%, the “Positive rate of rhodopsin” value ([1]; Wnt3a substitute at 2.5 mM) was 56.2% and the “Positive rate of Crx” value ([1]; Wnt3a substitute at 5 mM) was 5.0%. The “Positive rate of Ki67” value ([1]; Wnt3a substitute at 5 mM) was 33.3%, the “Positive rate of peripherin2” value ([1]; Wnt3a substitute at 5 mM) was 1.5% and the “Positive rate of recoverin” value ([1]; Wnt3a substitute at 5 mM) was 78.9%. For the same molecule, the “Positive rate of rhodopsin” value ([1]; Wnt3a substitute at 5 mM) was 68.5%.

`O=C1NC(=O)C(c2ccccc2[N+](=O)[O-])=C1Nc1ccc(O)c(Cl)c1` [SB415286] was tested, and the “Positive rate of Crx” value ([1]; Wnt3a substitute at 30 uM) was 53.7%, the “Positive rate of Ki67” value ([1]; Wnt3a substitute at 30 uM) was 13.3% and the “Positive rate of Pax6” value ([1]; Wnt3a substitute at 30 uM) was 89.1%. For the same molecule, the “Positive rate of Rom” value ([1]; Wnt3a substitute at 30 uM) was 59.5%, the “Positive rate of b-opsin” value ([1]; Wnt3a substitute at 30 uM) was 53.7% and the “Positive rate of peripherin2” value ([1]; Wnt3a substitute at 30 uM) was 9.1%. The “Positive rate of recoverin” value ([1]; Wnt3a substitute at 30 uM) was 70.0% and the “Positive rate of rhodopsin” value ([1]; Wnt3a substitute at 30 uM) was 69.3%.

With “Norrin: recombinant Norrin (R&D Systems), activator of the Wnt pathway that binds to Frizzled4 receptor” the “Positive rate of Crx” value ([1]; Wnt3a substitute at 50 ng/ml) was 39.3%, the “Positive rate of Ki67” value ([1]; Wnt3a substitute at 50 ng/ml) was 42.2% and the “Positive rate of Rom” value ([1]; Wnt3a substitute at 50 ng/ml) was 69.5%. The “Positive rate of b-opsin” value ([1]; Wnt3a substitute at 50 ng/ml) was 71.1%, the “Positive rate of peripherin2” value ([1]; Wnt3a substitute at 50 ng/ml) was 24.9% and the “Positive rate of recoverin” value ([1]; Wnt3a substitute at 50 ng/ml) was 85.0%. The “Positive rate of rhodopsin” value ([1]; Wnt3a substitute at 50 ng/ml) was 82.9%.

B1: Wnt3a: recombinant Wnt3a (R&D Systems), Wnt signaling pathway activator (protein, UniProt P56704 19-352, looked up)
Protein Wnt-3a: SYPIWWSLAVGPQYSSLGSQPILCASIPGLVPKQLRFCRNYVEIMPSVAEGIKIGIQECQHQFRGRRWNCTTVHDSLAIFGPVLDKATRESAFVHAIASAGVAFAVTRSCAEGTAAICGCSSRHQGSPGKGWKWGGCSEDIEFGGMVSREFADARENRPDARSAMNRHNNEAGRQAIASHMHLKCKCHGLSGSCEVKTCWWSQPDFRAIGDFLKDKYDSASEMVVEKHRESRGWVETLRPRYTYFKVPTERDLVYYEASPNFCEPNPETGSFGTRDRTCNVSSHGIDGCDLLCCGRGHNARAERRREKCRCVFHWCCYVSCQECTRVYDVHTCK
For B1, the “Positive rate of the photoreceptor cell precursor marker Crx after Wnt3a addition” value [2] was 80.1%.

B2: Wnt5A: recombinant Wnt5A (R&D Systems), Wnt signaling pathway activator used instead of Wnt3a (protein, UniProt P41221 62-380, looked up)
Protein Wnt-5a: IIGAQPLCSQLAGLSQGQKKLCHLYQDHMQYIGEGAKTGIKECQYQFRHRRWNCSTVDNTSVFGRVMQIGSRETAFTYAVSAAGVVNAMSRACREGELSTCGCSRAARPKDLPRDWLWGGCGDNIDYGYRFAKEFVDARERERIHAKGSYESARILMNLHNNEAGRRTVYNLADVACKCHGVSGSCSLKTCWLQLADFRKVGDALKEKYDSAAAMRLNSRGKLVQVNSRFNSPTTQDLVYIDPSPDYCVRNESTGSLGTQGRLCNKTSEGMDGCELMCCGRGYDQFKTVQTERCHCKFHWCCYVKCKKCTEIVDQFVCK
In the case of B2, the “Positive rate of Crx” value ([1]; Wnt3a substitute at 50 ng/ml) is reported as 67.3%, the “Positive rate of Ki67” value ([1]; Wnt3a substitute at 50 ng/ml) is reported as 41.3% and the “Positive rate of Rom” value ([1]; Wnt3a substitute at 50 ng/ml) is reported as 58.8%. For the same molecule, the “Positive rate of b-opsin” value ([1]; Wnt3a substitute at 50 ng/ml) was 55.0%, the “Positive rate of peripherin2” value ([1]; Wnt3a substitute at 50 ng/ml) was 20.7% and the “Positive rate of recoverin” value ([1]; Wnt3a substitute at 50 ng/ml) was 61.0%. For the same molecule, the “Positive rate of rhodopsin” value ([1]; Wnt3a substitute at 50 ng/ml) was 59.5%, the “Positive rate of peripherin2” value ([1]; Wnt3a substitute at 100 ng/ml) was 14.2% and the “Positive rate of recoverin” value ([1]; Wnt3a substitute at 100 ng/ml) was 61.6%. For the same molecule, the “Positive rate of rhodopsin” value ([1]; Wnt3a substitute at 100 ng/ml) was 56.1%.

B3: Wntll: recombinant Wnt11 (R&D Systems), Wnt signaling pathway activator used instead of Wnt3a (protein, UniProt O96014 25-354, looked up)
Protein Wnt-11: IKWLALSKTPSALALNQTQHCKQLEGLVSAQVQLCRSNLELMHTVVHAAREVMKACRRAFADMRWNCSSIELAPNYLLDLERGTRESAFVYALSAAAISHAIARACTSGDLPGCSCGPVPGEPPGPGNRWGGCADNLSYGLLMGAKFSDAPMKVKKTGSQANKLMRLHNSEVGRQALRASLEMKCKCHGVSGSCSIRTCWKGLQELQDVAADLKTRYLSATKVVHRPMGTRKHLVPKDLDIRPVKDSELVYLQSSPDFCMKNEKVGSHGTQDRQCNKTSNGSDSCDLMCCGRGYNPYTDRVVERCHCKYHWCCYVTCRRCERTVERYVCK
With B3 the “Positive rate of Crx” value ([1]; Wnt3a substitute at 50 ng/ml) was 65.9%, the “Positive rate of Ki67” value ([1]; Wnt3a substitute at 50 ng/ml) was 40.1% and the “Positive rate of Rom” value ([1]; Wnt3a substitute at 50 ng/ml) was 50.2%. The “Positive rate of b-opsin” value ([1]; Wnt3a substitute at 50 ng/ml) was 30.6%, the “Positive rate of peripherin2” value ([1]; Wnt3a substitute at 50 ng/ml) was 0.5% and the “Positive rate of recoverin” value ([1]; Wnt3a substitute at 50 ng/ml) was 65.3%. The “Positive rate of rhodopsin” value ([1]; Wnt3a substitute at 50 ng/ml) was 51.8%, the “Positive rate of peripherin2” value ([1]; Wnt3a substitute at 100 ng/ml) was 10.7% and the “Positive rate of recoverin” value ([1]; Wnt3a substitute at 100 ng/ml) was 61.8%. For the same molecule, the “Positive rate of rhodopsin” value ([1]; Wnt3a substitute at 100 ng/ml) was 59.1%.

B4: Wntl: recombinant Wnt1 (PeproTech), Wnt signaling pathway activator used instead of Wnt3a (protein, UniProt P04628 28-370, looked up)
Proto-oncogene Wnt-1: ANSSGRWWGIVNVASSTNLLTDSKSLQLVLEPSLQLLSRKQRRLIRQNPGILHSVSGGLQSAVRECKWQFRNRRWNCPTAPGPHLFGKIVNRGCRETAFIFAITSAGVTHSVARSCSEGSIESCTCDYRRRGPGGPDWHWGGCSDNIDFGRLFGREFVDSGEKGRDLRFLMNLHNNEAGRTTVFSEMRQECKCHGMSGSCTVRTCWMRLPTLRAVGDVLRDRFDGASRVLYGNRGSNRASRAELLRLEPEDPAHKPPSPHDLVYFEKSPNFCTYSGRLGTAGTAGRACNSSSPALDGCELLCCGRGHRTRTQRVTERCNCTFHWCCHVSCRNCTHTRVLHECL
With B4 the “Positive rate of Crx” value ([1]; Wnt3a substitute at 50 ng/ml) was 60.3%, the “Positive rate of Ki67” value ([1]; Wnt3a substitute at 50 ng/ml) was 23.8% and the “Positive rate of Rom” value ([1]; Wnt3a substitute at 50 ng/ml) was 55.9%. The “Positive rate of b-opsin” value ([1]; Wnt3a substitute at 50 ng/ml) was 61.6%, the “Positive rate of peripherin2” value ([1]; Wnt3a substitute at 50 ng/ml) was 3.8% and the “Positive rate of recoverin” value ([1]; Wnt3a substitute at 50 ng/ml) was 70.9%. The “Positive rate of rhodopsin” value ([1]; Wnt3a substitute at 50 ng/ml) was 66.2%.
